Here are results for 29 compounds from patent US20100234364A1, “CCR2 INHIBITORS AND METHODS OF USE THEREOF” (priority 2007, published 2010).

Each structure is given as a SMILES string. Bounds are passed on as bounds.

T1 sequence (P41597 whole entry): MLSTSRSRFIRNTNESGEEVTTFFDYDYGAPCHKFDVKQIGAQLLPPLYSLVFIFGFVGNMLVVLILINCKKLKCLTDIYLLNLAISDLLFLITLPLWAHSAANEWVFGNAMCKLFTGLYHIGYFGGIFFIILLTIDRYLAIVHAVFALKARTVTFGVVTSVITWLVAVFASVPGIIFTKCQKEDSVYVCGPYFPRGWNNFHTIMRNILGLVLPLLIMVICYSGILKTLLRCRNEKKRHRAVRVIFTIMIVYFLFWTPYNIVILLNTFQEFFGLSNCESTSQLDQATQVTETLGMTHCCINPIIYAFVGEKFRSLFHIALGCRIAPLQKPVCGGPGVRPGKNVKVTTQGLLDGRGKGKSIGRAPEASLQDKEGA

The first experiment concerns the target T1, CCR2 (Homo sapiens, UniProt P41597).
T1 construct: chemokine expressing cells (such as THP-1 cells for CCR2 assay or MOLT-4 cells for CCR9 assay); host or cells: THP-1 cells
As to the kind of experiment: chemotaxis (conventional migration), ligand binding or calcium mobilization (calcium flux) assays. The note with it: Table 2: activity in one of the chemotaxis. The class given is cell-based. The method, then:
THP-1 cells and MOLT-4 cells were obtained from the American Type Culture Collection (Manassas, Va.) and cultured in RPMI tissue culture medium supplemented with 10% fetal calf serum (FCS) in a humidified 5% CO2 incubator at 37° C. Recombinant human chemokine proteins MCP-1 and TECK were obtained from R&D Systems (Minneapolis, Minn.). ^125I-labeled MCP-1 protein was obtained from Amersham (Piscataway, N.J.). ChemoTX® chemotaxis microchambers were purchased from Neuro Probe (Gaithersburg, Md.). CyQUANT® cell proliferation kits were purchased from Molecular Probes (Eugene, Oreg.). Calcium indicator dye Fluo-4 AM was purchased from Molecular Devices (Mountain View, Calif.).
Conventional-migration assay was used to determine the efficacy of potential receptor antagonists in blocking migration mediated through chemokines (such as CCR2 or CCR9). This assay was routinely performed using the ChemoTX® microchamber system with a 5-μm pore-sized polycarbonate membrane. To begin such an assay, chemokine expressing cells (such as THP-1 cells for CCR2 assay or MOLT-4 cells for CCR9 assay) were harvested by centrifugation of cell suspension at 1000 RPM on a GS-6R Beckman centrifuge. The cell pellet was resuspended in chemotaxis buffer (HBSS with 0.1% BSA) at 10×10^6cells/mL for CCR2 assay (5 ×10^6cells/mL for CCR9 assay). Test compounds at desired concentrations were prepared from 10 mM stock solutions by serial dilutions in chemotaxis buffer. An equal volume of cells and compounds were mixed and incubated at room temperature for 15 minutes. Afterwards, 20 μL of the mixture was transferred onto the porous membrane of a migration microchamber, with 29 μL of chemokine ligand (0.1 nM chemokine MCP-1 protein for CCR2 assay or 50 nm chemokine TECK protein for CCR9 assay) placed at the lower chamber. Following an incubation at 37° C. (90-minute for CCR2; 150-minute for CCR9), during which cells migrated […] the chemokine gradient, the assay was terminated by removing the cell drops from atop the filter. To quantify cells migrated across the membrane, 5 μL of 7X CyQUANT® solution was added to each well in the lower chamber, and the fluorescence signal measured on a Spectrafluor Plus fluorescence plate reader (TECAN, Durham, N.C.). The degree of inhibition was determined by comparing migration signals between compound-treated and untreated cells. IC50 calculation was further performed by non-linear squares regression analysis using Graphpad Prism (Graphpad Software, San Diego, Calif.).
Calcium flux assay measures an increase in intracellular calcium following ligand-induced receptor activation. In the screen of chemokine antagonists, it was used as a secondary assay carried out on a FLIPR® machine (Molecular Devices, Mountain View, Calif.). To begin an assay, chemokine expressing cells (such as THP-1 cells for CCR2 assay or MOLT-4 cells for CCR9 assay) were harvested by centrifugation of cell suspension, and resuspended to 1.5×10^6 cells/mL in HBSS (with 1% fetal calf serum). Cells were then labeled with a calcium indicator dye Fluo-4 AM for 45 minutes at 37° C. with gentle shaking. Following incubation, cells were pelletted, washed once with HBSS and resuspended in the same buffer at a density of 1.6×10^6 cells/mL. One hundred microliters of labeled cells were mixed with 10 μL of test compound at the appropriate concentrations on an assay plate. Chemokine protein (MCP-1 at a final concentration of 0.1 nM for CCR2 assay or TECK at a final concentration of 25 nM for CCR9 assay) to activate the receptor. The degree of inhibition was determined by comparing calcium signals between compound-treated and untreated cells. IC50 calculations were further performed by non-linear squares regression analysis using Graphpad Prism (Graphpad Software, San Diego, Calif.).
Ligand binding assay was used to determine the ability of potential CCR2 antagonists to block the interaction between CCR2 and its ligand MCP-1. […]
On the technique in general: Calcium flux is commonly read through the fluorescence of an indicator in the cells.
Regarding `CN(C)C(=O)C1CCCN1C(=O)c1ccc(Cl)cc1NS(=O)(=O)c1ccc(Cl)c(C(F)(F)F)c1` (centres unmarked), the IC50 (as a rule, the concentration at which inhibition is half-maximal) was less than 500 nM.

As to `O=C(c1ccc(Cl)cc1NS(=O)(=O)c1ccc(Cl)c(C(F)(F)F)c1)N1CCCCC1` [drawing 291], the IC50 is less than 500 nM. The same measure, in the same setting: as for `O=C(c1ccc(Cl)cc1NS(=O)(=O)c1ccc(Cl)c(C(F)(F)F)c1)N1CCOCC1`, the figure is less than 500 nM; as for `O=C(c1ccccc1)c1cc(Cl)ccc1NS(=O)(=O)c1ccc(Cl)c(Cl)c1` [drawing 296], less than 500 nM.

Turning to `Cn1cncc1C(=O)c1ccc(Cl)cc1NS(=O)(=O)c1ccc(Cl)c(C(F)(F)F)c1`, the IC50 was less than 500 nM. In the case of `Cc1cc(S(=O)(=O)Nc2cc(Cl)ccc2C(=O)N(C)c2ccccn2)ccc1Cl`, the IC50 was less than 500 nM. Consider `O=C(c1ccc(Cl)cc1NS(=O)(=O)c1ccc(Cl)c([N+](=O)[O-])c1)N1CCOCC1`, for which the IC50 was less than 500 nM.

For the compound `O=C(c1ccc(Cl)cc1NS(=O)(=O)c1ccc(Cl)c(C(F)(F)F)c1)N1CCCC1`, the IC50 is less than 500 nM.

For the compound `O=C(c1ccc(Cl)cc1NS(=O)(=O)c1ccc(Cl)c(C(F)(F)F)c1)c1ccnc2[nH]ccc12`, the IC50 was less than 500 nM. For the compound `O=C(c1ccc(Cl)cc1NS(=O)(=O)c1ccc(Cl)c(C(F)(F)F)c1)N1CCS(=O)(=O)CC1`, the IC50 is less than 500 nM. `O=C(O)c1cc(S(=O)(=O)Nc2ccc(Cl)cc2C(=O)c2ccccc2)c(F)cc1Cl`: the IC50 is less than 500 nM.

Regarding `O=C(c1cocn1)c1cc(Cl)ccc1NS(=O)(=O)c1ccc(Cl)c(C(F)(F)F)c1`, the IC50 was less than 500 nM.

Still in this experiment, the particulars now being: Table 3: activity in one of the chemotaxis.
As for `O=C(c1ccccc1)c1cc(Cl)ccc1NS(=O)(=O)c1ccc(Cl)cc1` [drawing 330], the IC50 is 500 to 5000 nM. As for `O=C(c1ccccc1)c1cc(Cl)ccc1NS(=O)(=O)c1ccc(F)c(Cl)c1`, the IC50 was in the range of 500 to 5000 nM.

With `Cc1cccc(S(=O)(=O)Nc2ccc(Cl)cc2C(=O)N2CCOCC2)c1`, the IC50 was in the range of 500 to 5000 nM. On to `O=S(=O)(Nc1ccccc1Oc1ccccc1)c1ccc(Cl)c(Cl)c1`, for which the IC50 lay within 500 to 5000 nM. As for `O=C(c1cc(Cl)ccc1NS(=O)(=O)c1ccc(Cl)c(Cl)c1)N1CCOCC1`, the IC50 was in the range of 500 to 5000 nM.

With `O=C(c1cc(Cl)ccc1NS(=O)(=O)c1ccc(Cl)cc1)N1CCOCC1`, the IC50 is 500 to 5000 nM. As for `O=C(c1ccc(Cl)cc1NS(=O)(=O)c1ccc(C(F)(F)F)cc1Cl)N1CCOCC1`, the IC50 lay within 500 to 5000 nM. For `COC(=O)c1cc(NS(=O)(=O)c2ccc(Cl)c(Cl)c2)c(C(=O)c2ccccc2)cc1Cl`, the IC50 was in the range of 500 to 5000 nM. As for `O=C(c1ccccn1)c1cc(Cl)ccc1NS(=O)(=O)c1ccc(Cl)c(Cl)c1`, the IC50 was 500 to 5000 nM. Take `O=C(c1cc(Cl)ccc1NS(=O)(=O)c1ccc(Cl)cc1Cl)N1CCOCC1`: the IC50 lay in the range of 500 to 5000 nM. Same read-out and setting: in the case of `O=C(c1ccccc1)c1cc(Cl)ccc1NS(=O)(=O)c1ccc(Cl)c(C(F)(F)F)c1` [drawing 337] it was 500 to 5000 nM. Turning to `O=C(c1cc(Cl)ccc1NS(=O)(=O)c1ccc(Br)cc1)N1CCOCC1`, the IC50 is 500 to 5000 nM. Same read-out and setting: as for `O=C(c1ccccc1)c1cc(F)ccc1NS(=O)(=O)c1ccc(Cl)c(Cl)c1` [drawing 338], the figure is 500 to 5000 nM.

For the compound `Cn1ccnc1C(=O)c1cc(Cl)ccc1NS(=O)(=O)c1ccc(Cl)c(Cl)c1`, the IC50 lay within 500 to 5000 nM. For `CNC(=O)C1CCCN1C(=O)c1ccc(Cl)cc1NS(=O)(=O)c1ccc(Cl)c(C(F)(F)F)c1` (centres unmarked), the IC50 lay within 500 to 5000 nM. As for `O=S(=O)(Nc1cc(Cl)ccc1-c1ncco1)c1ccc(Cl)c(Cl)c1`, the IC50 was 500 to 5000 nM. On to `O=C(c1ccccc1F)c1cc(Cl)ccc1NS(=O)(=O)c1ccc(Cl)c(Cl)c1` [drawing 335], for which the IC50 was in the range of 500 to 5000 nM.
